Assay results as given in US20220168268A1, “SMALL-MOLECULE INHIBITOR OF PD-1/PD-L1, PHARMACEUTICAL COMPOSITION THEREOF WITH PD-L1 ANTIBODY, AND APPLICATION OF SAME” (Guangzhou Maxinovel Pharmaceuticals Co., Ltd., priority 2019, published 2022).
Several values for one entry are separate records, joined by “and”; a condition that tells them apart may be missing. Equal entries are not always repeated.

Assays:
[1] = Pharmacokinetic experiment in mice (iv and oral gavage); type: in vivo; settings: mouse, whole blood; CD1 male mice; tail vein 2 mg/kg and oral gavage 10 mg/kg
Description: Glipizide (molecular formula was C21H27N5O4S, molecular weight was 445.5 g/mol, Analytical Reagent) purchased from Sigma-Aldrich (U.S.A.), was used as the internal standard for analysis. Methanol, acetonitrile and formic acid (HPLC grade) were purchased from Sigma-Aldrich (U.S.A.), and pure water was purchased from Hangzhou Wahaha Group Co., Ltd. (Hangzhou, China). Other chemical reagents were all analytical reagents.
CD1 male mice, six per group, 6-7 weeks old, 29-31 g, were purchased from LC Laboratory Animal Co. LTD. Before the experiment, the animals should be kept for at least 3 days to adapt to the environment. Throughout the experiment, the animals were required to fast overnight, and allowed to drink water freely during the period, and the surviving animals resumed feeding 4 hours after administration.
1. The compound was formulated into a solution with a concentration of 0.4 mg/mL with 10% DMSO, 10% Solutol HS 15 and 80% Saline.
2. The above prepared solution was administered to 3 mice by tail vein injection (compound dosage was 2 mg/kg), and was administered to another 3 mice by oral gavage (compound dosage was 10 mg/kg) simultaneously.
3. Approximately 30 μL of blood was collected from each of the above 6 mice at 5 minutes, 15 minutes, 30 minutes, 1 hour, 2 hours, 4 hours, 8 hours and 24 hours after administration into the EDTA-K2 anticoagulation tube (set on wet ice), and 20 μL of blood was immediately diluted with 60 μL of water, and then put in the refrigerator at −70° C. for long-term storage until the sample was analyzed.
4. 20 μL of the above solution was transfered into a 96-well deep well sample plate, and 150 μL of glipizide internal standard acetonitrile solution (the concentration was 100 ng/mL) was added, vortexed for 10 min, and centrifuged at […] for 10 min 1 μL of the supernatant was taken for LCMSMS analysis.
5. Based on the drug concentration-time data, WinNonlin 6.4 software (USA) was used to calculate the pharmacokinetic parameters of the compound according to the non-compartment model.

PD-1/PD-L1 = biological target: T1, PD-1/PD-L1 (Homo sapiens, UniProt Q9NZQ7); test: Homogeneous Time-Resolved Fluorescence (HTRF) PD-1/PD-L1 binding assay; settings: CisBio kit
T1 construct: unspecified kit tag (tag1 or tag2, recognised by the detection antibodies); purchased CisBio 64CUS000C-1
T1 sequence (Q9NZQ7 19-238 limits assumed): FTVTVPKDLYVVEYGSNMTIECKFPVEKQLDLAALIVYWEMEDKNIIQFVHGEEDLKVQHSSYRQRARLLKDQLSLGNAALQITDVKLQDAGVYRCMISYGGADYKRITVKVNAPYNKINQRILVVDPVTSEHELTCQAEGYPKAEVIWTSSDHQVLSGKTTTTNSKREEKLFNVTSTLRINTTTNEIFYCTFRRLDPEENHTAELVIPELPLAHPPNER
Description: Homogenouse Time-Resolved Fluorescence (HTRF) binding assay was used to determine the binding activity of the compound of the present disclosure to PD-1/PD-L1.
The purchased kit (CisBio, #64CUS000C-1) contained the reagents required for experiments such as PD-1, PD-L1, anti-tagl-Eu, Anti-tag2-XL665, Dilute Buffer and Detection Buffer.
1. The compound was formulated to 10 concentrations with a three-fold concentration gradient with 100% DMSO.
2. The solution of the compound in DMSO was added to Dilute Buffer, and mixed evenly and then transferred to a 96-well plate.
3. PD-L1 was diluted with Dilute Buffer and added to the 96-well plate above.
4. PD-1 was diluted with Dilute Buffer, then added to the 96-well plate above and incubated at room temperature for 30 minutes.
5. One portion of anti-tag1-Eu and one portion of anti-tag2-XL665 were added to Detection Buffer, mixed evenly and transferred to the 96-well plate above.
6. The mixed solution in the 96-well plate were incubated at room temperature for 1 to 24 hours.
7. HTRF values were read by Envision.

[2] = tested on: colon cancer MC-38-hPD-L1; test: In vivo pharmacodynamics in hPD-1 knock-in mouse colon cancer MC-38-hPD-L1 model; set-up: species or system C57BL/6-hPD-1 mice; settings: D19; for Tumor Volume: mean ± SEM
Description: In vivo pharmacodynamics study of PD-L1 antibody Durvalumab and compound 29 used singly or in combination in hPD-1 knock-in mouse colon cancer MC-38-hPD-L1 model
Antibody: PD-L1 antibody Imfinzi (Durvalumab), 120 mg/2.4 mL (50 mg/mL), Lot: 041E17C. Manufacturer: AstraZeneca, purchased from Hong Kong Mingchuang Pharmacy Co., Ltd., stored at 2-8° C.
Experimental animals: Human PD-1 transgenic mice, strain: C57BL/6-hPD-1 mice, 6-8 weeks, weighing 18-21 grams, female, 120 mice, purchased from GemPharmatech Co., Ltd.
Human PD-L1 gene was knocked into MC-38 cells (MC-38-hPD-L1 cells), MC-38 cells was adherent cultured in vitro in DMEM medium with 10% heat-inactivated fetal bovine serum and hygromycinB (final concentration […]) at 37° C. under 5% CO2.
Passage cultivation was conducted three times a week. The cells were collected and counted at the exponential growth phase. 100 μL 1×10^6 MC-38-hPD-L1 cells suspension was inoculated into the right dorsal subcutaneous of C57BL/6-hPD-1 mice. 6 days after inoculation, 60 tumor-bearing mice with transplanted tumor volume ranging from 31.49 mm^3-110.26 mm^3 were selected, the mice were randomly divided into 6 groups, with 10 in each group, according to the experimental plan, and administration was started on the same day.
Preparation of vehicle: 800 mL sterile water was measured and added to volumertic flask. Magnetic stirring was carried out to produce vortex on the liquid surface. An aqueous solution of 10% (w/v) Cremophor RH40+20% (w/v) SBE-β-CD was obtained by slow addition of 100 g Cremophor RH40, followed by 200 g SBE-β-CD, and water to fix the solution volume to 1000 mL with fully stirring.
Preparation of Compound 29 suspension: 150.92 mg compound 29 was weighed and 12.5 […] 10% (w/v) Cremophor RH40+20% (w/v) SBE-β-CD (hereinafter referred to as vehicle) aqueous solution was added. A suspension was with a concentration of 12.0 mg/mL was obtained by fully mixing with vortexing for 2 minutes and ultrasonic treatment for 30 minutes. 5.0 mL of the suspension of compound 29 with a concentration of 12.0 mg/mL was pipetted, and 5.0 mL of vehicle was added to the suspension. The suspension with a concentration of 6.0 mg/mL was obtained by fully mixing with vortexing for 1 minute and ultrasonic treatment for 5 minutes. 2.0 mL of the suspension of compound 29 with a concentration of 12.0 mg/mL was pipetted, and 6.0 mL of vehicle was added to the suspension. The suspension with a concentration of 3.0 mg/mL was obtained by fully mixing with vortexing for 1 minute and ultrasonic treatment for 5 minutes. The suspension of compound 29 was prepared once a day.
Preparation of PD-L1 antibody: […] of Durvalumab stock solution (concentration: 50 mg/mL) was pipetted and divided into 6 portions in 5 mL sterile centrifuge tube, with 6.0 mg in each portion, then the portions were stored in a 4° C. refrigerator for late use. Before administration, 0.12 mL of stock solution (concentration: 50 mg/mL) was pipetted, 2.88 mL of 0.9% sodium chloride solution was added to the stock solution. 3 mL of the solution of Durvalumab with a final concentration 2 mg/mL was obtained by shaking slightly and fully vortexing.
1) The mice in the vehicle control group were weighed and recorded in an electronic balance according to the number. The mice in the vehicle control group were administered by oral gavage with vehicle according to the weight twice a day with a capacity of 0.1 mL/10 g. The time for administration was about 20 s for each mouse, and about 5 minutes in total for each group of 10 mice. 2) The mice in the compound 29 (30 mg/kg) group were weighed and recorded in an electronic balance according to the number. The mice in this group were administered by oral gavage with the prepared Compound 29 suspension according to the weight twice a day with a dosage of 30 mg/kg and a capacity of 0.1 mL/10 g. The time for administration was about 20 s for each mouse, and about 5 minutes in total for each group of 10 mice. […]

Compound	bioavailability [1]	IC50 (PD-1/PD-L1)	other results
Cc1c(/C=C/c2cc(CNC(C)(CO)C(=O)O)ccc2C(F)(F)F)cccc1-c1ccc2c(c1)OCCO2 (stereo not shown)	5.98%		
COc1cc(/C=C/c2cccc(-c3ccccc3)c2C)cc(OC)c1CN[C@@H](CO)C(=O)O	3.08%		
COc1cc(/C=C/c2cccc(-c3ccccc3)c2C)cc(OC)c1CN[C@@](C)(CO)C(=O)O	3.89%		
COc1cc(/C=C/c2cccc(-c3ccccc3)c2C)cc(OC)c1CN[C@](C)(CO)C(=O)O	4.42%		
Cc1c(/C=C/c2cc(CNC(CO)C(=O)O)ccc2C(F)(F)F)cccc1-c1ccccc1F (stereo not shown) [Compound 13, (E)-2-(3-(2-(2′-fluoro-2-methylbiphenyl-3-yl)vinyl)-4-(trifluoromethyl)benzylamino)-3-hydroxypropanoic Acid]	16.1%	13 nM	
Cc1c(/C=C/c2cc(CN[C@](C)(CO)C(=O)O)ccc2C(F)(F)F)cccc1-c1ccccc1 [Compound 27, (R,E)-2-(3-(2-(2-methylbiphenyl-3-yl)vinyl)-4-(trifluoromethyl)benzylamino)-3-hydroxy-2-methylpropanoic Acid]	52.3%	18 nM	
Cc1c(/C=C/c2cc(CN[C@@](C)(CO)C(=O)O)ccc2C(F)(F)F)cccc1-c1ccccc1 [Compound 29, (S,E)-2-(3-(2-(2-methylbiphenyl-3-yl)vinyl)-4-(trifluoromethyl)benzylamino)-3-hydroxy-2-methylpropanoic Acid]	38.2%	19 nM	Tumor Volume ([2]; 30 mg/kg, PO, BID): 459.82 ± 58.24/D19 mm^3; TGI (tumor inhibition rate) ([2]; 30 mg/kg, PO, BID, vs vehicle control): 24.95/D19%; Tumor Volume ([2]; 60 mg/kg, PO, BID): 439.04 ± 51.23/D19 mm^3; TGI (tumor inhibition rate) ([2]; 60 mg/kg, PO, BID, vs vehicle control): 29.06/D19%; Tumor Volume ([2]; 120 mg/kg, PO, BID): 325.23 ± 38.59/D19 mm^3; TGI (tumor inhibition rate) ([2]; 120 mg/kg, PO, BID, vs vehicle control (max tumor inhibition rate of Compound 29)): 51.21% and 51.21/D19%
Cc1c(/C=C/c2cc(CN[C@@](C)(CO)C(=O)O)ccc2C(F)(F)F)cccc1-c1cccnc1 [Compound 40, (S,E)-3-hydroxy-2-methyl-2-(3-(2-methyl-3-(pyridin-3-yl)styryl)-4-(trifluoromethyl)benzylamino)propanoic Acid]		580 nM	
Cc1c(/C=C/c2cc(CN[C@@](C)(CO)C(=O)O)ccc2C(F)(F)F)cccc1-c1cnccn1 [Compound 41, (S,E)-3-hydroxy-2-methyl-2-(3-(2-methyl-3-(pyrazin-2-yl)styryl)-4-(trifluoromethyl)benzylamino)propanoic Acid]		540 nM	
Cc1c(/C=C/c2cc(CN[C@@](C)(CO)C(=O)O)ccc2C(F)(F)F)cccc1-c1ccc2cn(C)nc2c1 [Compound 42, (S,E)-3-hydroxy-2-methyl-2-(3-(2-methyl-3-(2-methyl-2H-indazol-6-yl)-styryl)-4-(trifluoromethyl)benzylamino)propanoic Acid]		880 nM	
Cc1nc2ccc(-c3cccc(/C=C/c4cc(CN[C@@](C)(CO)C(=O)O)ccc4C(F)(F)F)c3C)cc2o1 [Compound 43, (S,E)-3-hydroxy-2-methyl-2-(3-(2-methyl-3-(2-methylbenzo[d]oxazol-6-yl)-styryl)-4-(trifluoromethyl)benzylamino)-3-hydroxy-2-methylpropanoic Acid]		540 nM	
Durvalumab: PD-L1 antibody Imfinzi (Durvalumab), 50 mg/mL, manufacturer AstraZeneca [reference compound]			Tumor Volume ([2]; Durvalumab 20 mg/kg, IP, BIW): 341.19 ± 56.59/D19 mm^3; TGI (tumor inhibition rate) ([2]; Durvalumab 20 mg/kg, IP, BIW, vs vehicle control): 48.17% and 48.17/D19%
